According to patent publication US12195427B2, “MASP-2 inhibitors and methods of use” (priority 2018, dated 2025):
Counter-ions that a name gives are not always drawn.

Legend:
MASP-2 CCP2-SP = MASP-2 CCP2-SP (Homo sapiens (Human), UniProt O00187); assay: MASP-2 co-crystallization, X-ray crystallography and structure analysis (H-bonds, van der Waals contacts); design: van der Waals contact distance, MASP-2 HIS 483 atom CD2 / van der Waals contact distance, MASP-2 HIS 483 atom NE2 / van der Waals contact distance, SER 654 C to compound atom / van der Waals contact distance, SER 654 O to compound atom / van der Waals contact distance, TRP 655 C to compound atom / van der Waals contact distance, MASP-2 GLY 528 atom CA / van der Waals contact distance TRP 655 atom CZ3 / van der Waals contact distance TRP 655 atom N / van der Waals contact distance TRP 655 atom CE3 / van der Waals contact distance GLY 656 atom C / van der Waals contact distance GLY 656 atom CA / van der Waals contact distance GLY 656 atom O / van der Waals contact distance, MASP-2 TYR 607 atom CD1 / van der Waals contact distance, MASP-2 PRO 606 atom O / d(C3,CA1) / d(CA1,N1)2 / d(H4,O1) / d(H4,O2) / d(O1,O2) / d(CA1,O2) / d(CA6,O1) / d(CA6,O2) / d(CA1,C5) / d(O2,H3) / d(N2,C2) / d(CA5,N2) / d(N2,C4) / d(N2,C6) / d(N2,CA3) / d(N2,O3) / d(O4,H2): unit not given beside the values; details: for H-bond distance to MASP-2 ASP 627 atom OD2: ASP 627 OD2; for H-bond distance to MASP-2 GLY 656 atom N: GLY 656 N; for H-bond distance to MASP-2 SER 657 atom O: SER 657 O; for Ligand-pharmacophore element distance, pharmacophore element C2 / Ligand-pharmacophore element distance, pharmacophore element C3 / Ligand-pharmacophore element distance, pharmacophore element C4 / Ligand-pharmacophore element distance, pharmacophore element C5 / Ligand-pharmacophore element distance, pharmacophore element C6 / Ligand-pharmacophore element distance, pharmacophore element C7 / Ligand-pharmacophore element distance, pharmacophore element CA1 / Ligand-pharmacophore element distance, pharmacophore element CA2 / Ligand-pharmacophore element distance, pharmacophore element CA3 / Ligand-pharmacophore element distance, pharmacophore element CA4 / Ligand-pharmacophore element distance, pharmacophore element CA5 / Ligand-pharmacophore element distance, pharmacophore element CA6: Table A4-1;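 as to Ligand-pharmacophore element distance, pharmacophore element C2: distance from averaged pharmacophore element to bound ligand; missing value means element absent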;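 as to Ligand-pharmacophore element distance, pharmacophore element C3: distance from averaged pharmacophore element to bound ligand; missing value means element absent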;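 as to Ligand-pharmacophore element distance, pharmacophore element C4: distance from averaged pharmacophore element to bound ligand; missing value means element absent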;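 as to Ligand-pharmacophore element distance, pharmacophore element C5: distance from averaged pharmacophore element to bound ligand; missing value means element absent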
Method in brief: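 Human MASP-2 CCP2-SP, untagged or 6His-tagged, was expressed in E. coli and crystallized. Crystals were soaked with inhibitor in crystallization solution, flash-cooled in liquid nitrogen, and diffracted with synchrotron X-rays (wavelength 1.0). Structures were solved by molecular replacement from 1Q3X and partially refined.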

MASP-2 (CCP1-CCP2-SP) = MASP-2 (CCP1-CCP2-SP) (Homo sapiens (Human), UniProt O00187); assay: Enzymatic Assay for MASP-2 (fluorogenic substrate); format: biochemical
[1] = Table A5-1 pharmacophore: distance between elements, S2/S1 region
[2] = Table A5-2 pharmacophore distance, S3/S4 region
[3] = Table A7-1, between pharmacophore elements of the bound compound
[4] = Table A7-2, between pharmacophore elements of the bound compound

MASP-2 CCP2-SP, sequence (O00187 445-686): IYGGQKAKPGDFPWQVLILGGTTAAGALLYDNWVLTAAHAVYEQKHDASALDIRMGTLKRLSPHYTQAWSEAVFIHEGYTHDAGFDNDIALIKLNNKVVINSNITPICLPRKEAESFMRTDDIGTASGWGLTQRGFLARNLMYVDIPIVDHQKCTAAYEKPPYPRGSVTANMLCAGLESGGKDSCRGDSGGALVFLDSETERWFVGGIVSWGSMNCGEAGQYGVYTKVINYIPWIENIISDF
MASP-2 CCP2-SP, sequence (O00187 364-432 partner): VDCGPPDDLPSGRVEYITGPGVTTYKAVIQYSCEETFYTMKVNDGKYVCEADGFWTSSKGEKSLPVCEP
MASP-2 (CCP1-CCP2-SP), sequence (O00187 445-686): as the sequence (O00187 445-686) above

C[C@H](NC(=O)[C@H]1C[C@H](c2ccccc2)CN1)C(=O)NCc1ccc(C(=N)N)cc1 [compound 1036]
H-bond distance to MASP-2 ASP 627 atom OD2 (MASP-2 CCP2-SP; Table A1 (H-Bonds)): 2.96 | H-bond distance to MASP-2 GLY 656 atom N (MASP-2 CCP2-SP; Table A1 (H-Bonds)): 3.22 | H-bond distance to MASP-2 SER 628 atom O (MASP-2 CCP2-SP; Table A1 (H-Bonds), SER 628 O): 2.9 | H-bond distance to MASP-2 SER 657 atom O (MASP-2 CCP2-SP; Table A1 (H-Bonds)): 2.93 | van der Waals contact distance, MASP-2 HIS 483 atom CD2 (MASP-2 CCP2-SP; Table A2-1): 3.81 | van der Waals contact distance, MASP-2 PHE 529 atom CE2 (MASP-2 CCP2-SP; Table A2-3): 3.72 | van der Waals contact distance TRP 655 atom N (MASP-2 CCP2-SP; Table A2-13, MASP-2 TRP 655 N): 3.58 | van der Waals contact distance GLY 656 atom O (MASP-2 CCP2-SP; Table A2-14, MASP-2 GLY 656 O): 3.55 | van der Waals contact distance SER 657 atom C (MASP-2 CCP2-SP; Table A2-14, MASP-2 SER 657 C, columns c12-c13 (inferred)): 3.57

C[C@H](NC(=O)[C@H](N)CCc1ccccc1)C(=O)NCc1cc(Cl)ccc1-n1cnnn1 [compound 1325, (R)-2-amino-N—((S)-1-((5-chloro-2-(1H-tetrazol-1-yl)benzyl)amino)-1-oxopropan-2-yl)-4-phenylbutanamide]
Ki (MASP-2 (CCP1-CCP2-SP)): 500 to 2500 nM

C[C@H](NC(=O)[C@H]1C[C@@H](c2ccccc2)CCN1)C(=O)NCc1cc(Cl)ccc1O.Cl [1078_13]
Ligand-pharmacophore element distance, pharmacophore element C2 (MASP-2 CCP2-SP): 0.58 | Ligand-pharmacophore element distance, pharmacophore element C3 (MASP-2 CCP2-SP): 0 | Ligand-pharmacophore element distance, pharmacophore element C4 (MASP-2 CCP2-SP): 0 | Ligand-pharmacophore element distance, pharmacophore element C5 (MASP-2 CCP2-SP): 0.47 | Ligand-pharmacophore element distance, pharmacophore element C6 (MASP-2 CCP2-SP): 0 | Ligand-pharmacophore element distance, pharmacophore element C7 (MASP-2 CCP2-SP): 0 | Ligand-pharmacophore element distance, pharmacophore element CA1 (MASP-2 CCP2-SP): 1.62 | Ligand-pharmacophore element distance, pharmacophore element CA2 (MASP-2 CCP2-SP): 0.73 | Ligand-pharmacophore element distance, pharmacophore element CA3 (MASP-2 CCP2-SP): 0 | Ligand-pharmacophore element distance, pharmacophore element CA4 (MASP-2 CCP2-SP): 0 | Ligand-pharmacophore element distance, pharmacophore element CA5 (MASP-2 CCP2-SP): 0 | Ligand-pharmacophore element distance, pharmacophore element CA6 (MASP-2 CCP2-SP): 0 | d(CA1,C5) (MASP-2 CCP2-SP; [1]): 3.12 | d(CA1,O1) (MASP-2 CCP2-SP; [1]): 4.37 | d(CA1,O2) (MASP-2 CCP2-SP; [1]): 4.66 | d(CA1,O4) (MASP-2 CCP2-SP; [1]): 2.76 | d(H4,O1) (MASP-2 CCP2-SP; [1]): 3.14 | d(H4,O2) (MASP-2 CCP2-SP; [1]): 3.66 | d(O1,O2) (MASP-2 CCP2-SP; [1]): 3.25 | d(O4,H2) (MASP-2 CCP2-SP; [1]): 0.98 | d(N2,C2) (MASP-2 CCP2-SP; [2]): 1.47 | d(N2,CA2) (MASP-2 CCP2-SP; [2]): 5.61 | d(O2,H3) (MASP-2 CCP2-SP; [2]): 2.11 | d(O2,N2) (MASP-2 CCP2-SP; [2]): 2.79 | a(C5, CA1, O1) (MASP-2 CCP2-SP; Table A6-1 pharmacophore angle): 162.99 | a(CA1, O1, O2) (MASP-2 CCP2-SP; Table A6-1 pharmacophore angle): 115.77 | a(CA1, O4, H2) (MASP-2 CCP2-SP; Table A6-1 pharmacophore angle): 129.33 | a(O1, CA1, O4) (MASP-2 CCP2-SP; Table A6-1 pharmacophore angle): 65.06 | a(O1, O2, H4) (MASP-2 CCP2-SP; Table A6-1 pharmacophore angle): 123.59 | a(O1, O2, H3) (MASP-2 CCP2-SP; Table A6-2 pharmacophore angle): 135.66 | a(O1, O2, N2) (MASP-2 CCP2-SP; Table A6-2 pharmacophore angle): 146.15 | a(O2, N2, C2) (MASP-2 CCP2-SP; Table A6-2 pharmacophore angle): 127.57 | a(O2, N2, CA2) (MASP-2 CCP2-SP; Table A6-2 pharmacophore angle): 154.39 | Pharmacophore torsion angle a(C5, CA1, O1, H4) (MASP-2 CCP2-SP; [3]): −7.66 | Pharmacophore torsion angle a(H4, O1, O2, H3) (MASP-2 CCP2-SP; [3]): −157.30 | Pharmacophore torsion angle a(H4, O1, O2, N2) (MASP-2 CCP2-SP; [3]): −162.99 | Pharmacophore torsion angle a(O1, H4, O2, CA1) (MASP-2 CCP2-SP; [3]): −78.80 | Pharmacophore torsion angle a(O1, O2, N2, C2) (MASP-2 CCP2-SP; [3]): 118.91 | Pharmacophore torsion angle a(O1, O2, N2, CA2) (MASP-2 CCP2-SP; [4]): 137.37

Cc1nc(N)ccc1CNC(=O)[C@H](C)NC(=O)[C@H]1C[C@H](Cc2cc(Cl)cc(Cl)c2)CN1 [compound 1435, (2R,4S)—N—((S)-1-(((6-Amino-2-methylpyridin-3-yl)methyl)amino)-1-oxopropan-2-yl)-4-(3,5-dichlorobenzyl)pyrrolidine-2-carboxamide Dihydrochloride]
H-bond distance to MASP-2 ASP 627 atom OD2 (MASP-2 CCP2-SP; Table A1 (H-Bonds)): 3.32 | H-bond distance to MASP-2 GLY 656 atom N (MASP-2 CCP2-SP; Table A1 (H-Bonds)): 3.26 | H-bond distance to MASP-2 GLY 656 atom O (MASP-2 CCP2-SP; Table A1 (H-Bonds), GLY 656 O): 2.79 | H-bond distance to MASP-2 SER 654 atom O (MASP-2 CCP2-SP; Table A1 (H-Bonds), SER 654 O): 3.01 | H-bond distance to MASP-2 SER 657 atom O (MASP-2 CCP2-SP; Table A1 (H-Bonds)): 2.84 | van der Waals contact distance, MASP-2 amino acid atom to compound atom (MASP-2 CCP2-SP; Table A2): 3.83 | van der Waals contact distance, MASP-2 HIS 483 atom CD2 (MASP-2 CCP2-SP; Table A2-1): 3.7 | van der Waals contact distance, MASP-2 HIS 483 atom NE2 (MASP-2 CCP2-SP; Table A2-1): 3.6 | van der Waals contact distance, MASP-2 PHE 529 atom CD2 (MASP-2 CCP2-SP; Table A2-3): 3.61 | van der Waals contact distance, MASP-2 amino acid atom to compound atom (MASP-2 CCP2-SP; Table A2-7: SER 628 (CB, O, OG)): 3.67 | van der Waals contact distance, TRP 655 CA to compound atom (MASP-2 CCP2-SP; Table A2-12): 3.41 | Ligand-pharmacophore element distance, pharmacophore element C2 (MASP-2 CCP2-SP): 0 | Ligand-pharmacophore element distance, pharmacophore element C3 (MASP-2 CCP2-SP): 0.15 | Ligand-pharmacophore element distance, pharmacophore element C4 (MASP-2 CCP2-SP): 1.37 | Ligand-pharmacophore element distance, pharmacophore element C5 (MASP-2 CCP2-SP): 0 | Ligand-pharmacophore element distance, pharmacophore element C6 (MASP-2 CCP2-SP): 0.38 | Ligand-pharmacophore element distance, pharmacophore element C7 (MASP-2 CCP2-SP): 0 | Ligand-pharmacophore element distance, pharmacophore element CA1 (MASP-2 CCP2-SP): 0.6 | Ligand-pharmacophore element distance, pharmacophore element CA2 (MASP-2 CCP2-SP): 0.8 | Ligand-pharmacophore element distance, pharmacophore element CA3 (MASP-2 CCP2-SP): 0 | Ligand-pharmacophore element distance, pharmacophore element CA4 (MASP-2 CCP2-SP): 0 | Ligand-pharmacophore element distance, pharmacophore element CA5 (MASP-2 CCP2-SP): 0 | Ligand-pharmacophore element distance, pharmacophore element CA6 (MASP-2 CCP2-SP): 0 | d(C3,CA1) (MASP-2 CCP2-SP; [1]): 2.85 | d(CA1,N1)2 (MASP-2 CCP2-SP; [1]): 1.38 | d(CA1,O1) (MASP-2 CCP2-SP; [1]): 4.36 | d(CA1,O2) (MASP-2 CCP2-SP; [1]): 3.86 | d(H4,O1) (MASP-2 CCP2-SP; [1]): 4.37 | d(H4,O2) (MASP-2 CCP2-SP; [1]): 3.79 | d(O1,O2) (MASP-2 CCP2-SP; [1]): 3.37 | d(N2,C4) (MASP-2 CCP2-SP; [2]): 8.24 | d(N2,C4)4 (MASP-2 CCP2-SP; [2]): 8.24 | d(N2,C6) (MASP-2 CCP2-SP; [2]): 7.51 | d(N2,CA2) (MASP-2 CCP2-SP; [2]): 6.00 | d(O2,H3) (MASP-2 CCP2-SP; [2]): 4.33 | d(O2,N2) (MASP-2 CCP2-SP; [2]): 2.62 | a(C3, CA1, O1) (MASP-2 CCP2-SP; Table A6-1 pharmacophore angle): 149.49 | a(CA1, O1, O2) (MASP-2 CCP2-SP; Table A6-1 pharmacophore angle): 106.19 | a(O1, O2, H4) (MASP-2 CCP2-SP; Table A6-1 pharmacophore angle): 131.96 | a(N1, CA1, O1) b) (MASP-2 CCP2-SP; Table A6-1 pharmacophore angle, Methyl-amino-pyridine compounds): 173.74 | a(O1, O2, H3) (MASP-2 CCP2-SP; Table A6-2 pharmacophore angle): 147.24 | a(O1, O2, N2) (MASP-2 CCP2-SP; Table A6-2 pharmacophore angle): 139.75 | a(O2, N2, C4) (MASP-2 CCP2-SP; Table A6-2 pharmacophore angle): 164.21 | a(O2, N2, C4) 2 (MASP-2 CCP2-SP; Table A6-2 pharmacophore angle): 121.06 | a(O2, N2, C6) (MASP-2 CCP2-SP; Table A6-2 pharmacophore angle): 99.38 | a(O2, N2, CA2) (MASP-2 CCP2-SP; Table A6-2 pharmacophore angle): 157.86 | Pharmacophore torsion angle a(C3, CA1, O1, H4) (MASP-2 CCP2-SP; [3]): 24.44 | Pharmacophore torsion angle a(H4, O1, O2, H3) (MASP-2 CCP2-SP; [3]): 51.39 | Pharmacophore torsion angle a(H4, O1, O2, N2) (MASP-2 CCP2-SP; [3]): 136.22 | Pharmacophore torsion angle a(N1, CA1, O1, H4) (MASP-2 CCP2-SP; [3]): 1.43 | Pharmacophore torsion angle a(O1, H4, O2, CA1) (MASP-2 CCP2-SP; [3]): −83.48 | Pharmacophore torsion angle a(O1, O2, N2, C6) (MASP-2 CCP2-SP; [4]): 137.30 | Pharmacophore torsion angle a(O1, O2, N2, CA2) (MASP-2 CCP2-SP; [4]): 123.48
